In brackets after ≈: the same amount, converted by molar mass. Entries after “also recorded” stand apart in the source; their conditions may differ. Where two headings read alike, the source gives them in different places.
What was measured:
H. pylori [1] = test: MIC against H. pylori, agar dilution method; assay type: cell-based, Helicobacter pylori; settings: for MIC: Helicobacter pylori, ATCC43504, read-out: MIC value against H. pylori ± SEM; for antibacterial activity against H. pylori (in words): compared within the series and with acetohydroxamic acid
H. pylori [2] = test: IC50 against H. pylori, micro broth dilution test; assay type: cell-based, Helicobacter pylori; settings: H. pylori ATCC 43504, micro broth dilution, 72 h, OD 600 nm, read-out: IC50 value against H. pylori ± SEM
AGS gastric cells = test: Cytotoxicity MTT assay against AGS gastric cells; assay type: cell-based, Human; settings: for IC50: MTT, 48 h treatment, read-out: IC50 value against AGS cells ± SEM; for Selectivity index (SI): toward H. pylori vis-à-vis AGS cells (IC50 values)
Description: Human gastric adenocarcinoma AGS cells (ATCC CRL-1739) were purchased from the German Cell Lines Service (CLS, Germany) and cultured in RPMI-1640 medium (Sigma, USA) supplemented with 10% fetal bovine serum (FBS, Sigma, USA) and streptomycin-penicillin (100 μg/mL and 100 IU/mL) (Sigma, USA). Cells were incubated at 37 °C in a humidified atmosphere with 5% CO2 until 80–90% confluency.
The (4, 5-dimethythiazol-2-yl) -2, 5-diphenyltetrazolium bromide (MTT, Sigma, USA) assay was used to assess the cytotoxicity of the five most significant compounds. AGS cells (5×10^3/well) were seeded in 96-well plates for 24 h and treated with various concentrations (0.8 mM, 0.4 mM, 0.2 mM, 0.1 mM, 0.05 mM, 0.025 mM, 0.0125 mM, and 0.006 mM) of the five most significant anti-urease imidazothiazole derivatives compounds (compound 1a, 1d, 1h, 2d, and 2f). After 48 h treatment, 100 μL of MTT solution (50 μg/mL) was added to each well, and the cells were incubated for additional 2 h at 37 °C. The solubilization of MTT crystals was accomplished by adding 100 μL of DMSO followed by 10 min of incubation. The plates were shaken for 5 min to dissolve the MTT formazan crystals. The optical density of each well was determined using a Synergy H1 microplate reader (Biotek, USA) at a wavelength of 570 nm. The IC50 of the tested compounds was calculated using GraphPad Prism 8.0.2 for windows (GraphPad Inc., La Jolla, CA, USA) from two repeated experiments.

E. coli [3] = test: MIC against E. coli (urease negative), agar dilution method; assay type: cell-based, Escherichia coli; settings: for MIC: Escherichia coli, ATCC25922, read-out: MIC ± SEM against E. coli (Urease-)
Description: (§1) The H. pylori reference strain ATCC 43504 (DSM 21031) was purchased from the German collection of microorganisms and cell cultures, GmbH (DSMZ; Germany). H. pylori was grown on Brucella agar plates (Sigma, USA) supplemented with 10% horse serum (Sigma, USA) for 72 h at 37 °C under 98% humidity and microaerophilic conditions (5% O2, 10% CO2, and 85% N2) using microaerophilic CampyGen 2.5 L pack (Oxoid, thermo scientific, UK) and anaerobic jar (Biomerieux, France). H. pylori culture was inspected after 3 to 5 days. The E. coli reference strain ATCC 25922 was purchased from the American Type Culture Collection (ATCC, Manassas, VA, USA). E. coli was grown on nutrient agar plates (Sigma, USA) for 24 h at 37 °C under aerobic conditions. Bacterial load was adjusted using a DensiCHEK PLUS device (Biomerieux, France). A regular gram stain (Biomerieux, France) was performed to confirm the identity and the morphology of H. pylori and E. coli as well as to confirm the absence of any contamination. Furthermore, a regular spotting checkup was also performed behind the micro broth dilution testing followed by a gram stain to confirm the identity of the bacteria and the absence of any potential contamination.
(§2) For MIC, the agar dilution method was performed as per the CLSI guidelines. 5 μL of the H. pylori suspension (2.0 McFarland) was plated on the Mueller–Hinton agar (Sigma, USA) supplemented with 10% horse serum including various concentrations of compounds 1a-1j and 2a-2j (0.8 mM, 0.4 mM, 0.2 mM, 0.1 mM, 0.05 mM, 0.025 mM, 0.0125 mM, and 0.006 mM). […] For the micro broth dilution test, compounds 1a-1j and 2a-2j were prepared by 2-fold serial dilution from a concentration of 0.8 mM to 0.006 mM and added to an equal H. pylori suspension of 1.0 McFarland in Mueller–Hinton broth (Sigma, USA) for 72 h. Final optical density of the bacterial suspension was measured by spectrophotometry using Synergy H1 microplate reader (BioTek, USA) at 600 nm. The half maximal inhibitory concentration (IC50) was calculated using Graph Pad Prism 8.02 for windows (Graph Pad Inc., La Jolla, CA, USA). All the tested derivatives compounds were dissolved in dimethyl sulfoxide (DMSO, Sigma, USA). […] Amoxicillin (Sigma, USA) (10 μg/mL and 0.007 μg/mL) and (12 μg/mL and 3 μg/mL) was used as a control antibiotic to confirm the agar dilution protocol for H. pylori and E. coli, respectively. Acetohydroxamic acid (AHA, Sigma, CAS number: 546-88-3) was used as a positive anti-urease control. All antimicrobial susceptibility experiments were repeated twice.

E. coli [4] = test: IC50 against E. coli (urease negative), micro broth dilution method; assay type: cell-based, Escherichia coli; settings: E. coli ATCC 25922, micro broth dilution
Description: as §1, §2

Jack bean urease = target: T1, Jack bean urease (Canavalia ensiformis, UniProt P07374); test: biochemical; assay type: biochemical
T1 construct: purchased Sigma Aldrich
Description: Reaction mixture comprising 40 μL of buffer (K2HPO4: 10 mmol/L, urea: 100 mmol/L, […]: 10 mmol/L, EDTA: 1 /L mmol, pH = 8.2) and 5 U/mL enzyme (10 μL) were pre-incubated with 10 μL of synthesized compounds (1 mM) and substrate urea (1 mM) were incubated at room temperature in 96 well plate for half an hour. After the incubation at room temperature, absorbance was taken at specific wavelength (630 nm) employing a microplate reader (Bio-Tek, USA) with R1 and R2 reagents in each well. The reactions were measured in triplicate fashion. To calculate the inhibition percentage following equation was used.
Percentage inhibition = 100 –[tested compound/control compound] × 100.

Caco-2 A-B permeability = assay type: in vitro ADME; settings: human, pH 6.5–7.4, test concentration = MIC against H. pylori (19-50 μM), reference drugs 10 μM
Description: (§3) The apparent permeability coefficient (Papp) of the test compound was calculated as follows: Papp(cm/s)=VR*CR,end/Δt*1/A*(CD,mid‐CR,mid) where VR is the volume of the receiver chamber. CR,end is the concentration of the test compound in the receiver chamber at the end time point, Δt is the incubation time and A is the surface area of the cell monolayer. CD,mid is the calculated mid-point concentration of the test compound in the donor side, which is the mean value of the donor concentration at time 0 minute and the donor concentration at the end time point. CR,mid is the mid-point concentration of the test compound in the receiver side, which is one half of the receiver concentration at the end time point. Concentrations of the test compound were expressed as peak areas of the test compound.
(§4) The recovery of the test compound was calculated as follows: Recovery(%)=VD*CD,end+VR*CR,end/VD*CD0*100 where VD and VR are the volumes of the donor and receiver chambers, respectively. CD,end is the concentration of the test compound in the donor sample at the end time point. CR,end is the concentration of the test compound in the receiver sample at the end time point. CD0 is the concentration of the test compound in the donor sample at time zero. Concentrations of the test compound are expressed as peak areas of the test compound.
(§5) Fluorescein was used as the cell monolayer integrity marker. Fluorescein permeability assessment (in the A-B direction at pH 7.4 on both sides) was executed after the permeability assay for the test compound.

Caco-2 cells = test: Caco-2 A-B permeability; assay type: in vitro ADME
Description: as §3, §4, §5

[5] = H. pylori ATCC 43504, agar dilution
[6] = E. coli ATCC 25922, agar dilution

T1 sequence (P07374 whole entry, looked up): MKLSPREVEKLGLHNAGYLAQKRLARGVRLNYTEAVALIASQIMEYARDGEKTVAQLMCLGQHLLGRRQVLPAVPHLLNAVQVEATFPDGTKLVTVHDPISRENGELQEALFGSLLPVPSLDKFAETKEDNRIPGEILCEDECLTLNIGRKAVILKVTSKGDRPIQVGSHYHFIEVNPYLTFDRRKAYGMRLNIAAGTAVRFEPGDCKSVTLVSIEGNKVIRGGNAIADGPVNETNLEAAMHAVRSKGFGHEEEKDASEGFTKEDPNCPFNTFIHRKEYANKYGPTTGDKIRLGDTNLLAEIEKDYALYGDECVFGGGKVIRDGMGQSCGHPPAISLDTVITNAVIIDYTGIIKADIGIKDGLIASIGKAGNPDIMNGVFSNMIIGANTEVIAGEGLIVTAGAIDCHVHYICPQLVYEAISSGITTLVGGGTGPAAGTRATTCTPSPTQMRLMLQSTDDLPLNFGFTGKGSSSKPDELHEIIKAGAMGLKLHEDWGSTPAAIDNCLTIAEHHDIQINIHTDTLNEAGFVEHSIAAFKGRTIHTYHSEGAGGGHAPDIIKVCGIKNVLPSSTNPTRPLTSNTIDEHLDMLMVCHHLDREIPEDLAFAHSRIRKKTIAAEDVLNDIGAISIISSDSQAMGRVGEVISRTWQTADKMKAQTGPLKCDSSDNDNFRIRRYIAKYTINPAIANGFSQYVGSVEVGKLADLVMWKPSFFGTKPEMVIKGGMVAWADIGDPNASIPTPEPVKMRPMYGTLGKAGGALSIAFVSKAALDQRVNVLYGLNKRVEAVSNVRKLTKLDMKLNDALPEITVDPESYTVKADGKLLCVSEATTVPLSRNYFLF

Compound	MIC value against H. pylori ± SEM (H. pylori [1]; [5]) [µM]	IC50 (H. pylori [2]) [µM]	IC50 (AGS gastric cells) [µM]	MIC ± SEM against E. coli (Urease-) (E. coli [3]; [6]) [µM]	IC50 (E. coli [4]; read-out: IC50 ± SEM against E. coli (Urease-)) [µM]	IC50 (Jack bean urease) [µM]	MIC (H. pylori [1]; [5]) [µM]	antibacterial activity against H. pylori (in words) (H. pylori [1])	IC50 (H. pylori [2]; Helicobacter pylori, ATCC43504) [µM]	IC50 (AGS gastric cells; Homo sapiens, AGS) [µM]	Selectivity index (SI) (AGS gastric cells)	MIC (E. coli [3]; [6]) [µM]	IC50 ± SEM against E. coli (Urease-) (E. coli [4])	Papp (Caco-2 A-B permeability) [×10⁻⁶ cm/s]	recovery (Caco-2 A-B permeability) [%]	melting point [°C]	activity against urease-negative E. coli (in words) (E. coli [3]; E. coli, up to 0.8 mM)	Caco-2 permeability (in words) (Caco-2 cells)
CC(=O)NO [Acetohydroxamic acid (AHA), Acetohydroxamic acid, reference compound]	12500 ± 0 (≈ 938 µg/mL)	7380 ± 320	5900 ± 300	100000	39900 ± 1780													
CS(=O)(=O)Oc1cccc(-c2nc3sccn3c2-c2ccccc2)c1 [Compound 1a, 3-(5-Phenylimidazo[2,1-b]thiazol-6-yl)phenyl methanesulfonate]						4.1 ± 0.03	19 ± 4	strongest antibacterial activity	23 ± 9	71 ± 17	3.09	> 800	No effect	18.6 ± 0.79	34.4	105 to 108		
O=S(=O)(Oc1cccc(-c2nc3sccn3c2-c2ccccc2)c1)C1CCCCC1 [Compound 1d, 3-(5-Phenylimidazo[2,1-b]thiazol-6-yl)phenyl cyclohexane-1-sulfonate]						3.09 ± 0.07	31 ± 11 (≈ 13.6 µg/mL)	strongest antibacterial activity	20 ± 3	121 ± 44	6.05	> 800	No effect	0.04 ± 0.01	63	118 to 120	did not show activity	lowest permeability; also recorded: poor Caco-2 A-B permeability; also recorded: low permeability
NS(=O)(=O)Oc1cccc(-c2nc3sccn3c2-c2ccccc2)c1 [Compound 1h, 3-(5-Phenylimidazo[2,1-b]thiazol-6-yl)phenyl sulfamate]						2.96 ± 0.02	50 (≈ 18.6 µg/mL)	strongest antibacterial activity	28 ± 1	145 ± 45	5.18	> 800	No effect	16.9 ± 0.87	32.6	173 to 175		
CS(=O)(=O)c1cccc(-c2c(-c3cccc(OS(=O)(=O)C4CCCCC4)c3)nc3sccn23)c1 [Compound 2d, 3-(5-(3-(Methylsulfonyl)phenyl)imidazo[2,1-b]thiazol-6-yl)phenyl cyclohexane-1-sulfonate]						4.46 ± 0.12	22 ± 4 (≈ 11.4 µg/mL)	strongest antibacterial activity	15 ± 3	30 ± 11	2.0	> 800	No effect	0.07 ± 0.02	73.5	142 to 144		lowest permeability; also recorded: low permeability
CS(=O)(=O)c1cccc(-c2c(-c3cccc(OS(=O)(=O)c4ccc(F)cc4)c3)nc3sccn23)c1 [Compound 2f, 3-(5-(3-(Methylsulfonyl)phenyl)imidazo[2,1-b]thiazol-6-yl)phenyl 4-fluorobenzenesulfonate]						7.19 ± 0.09	38 ± 13 (≈ 20.1 µg/mL)	strongest antibacterial activity	23 ± 8	45 ± 5	1.95	> 800	No effect	1.98 ± 0.23	71.8			lowest permeability; also recorded: low permeability
CC(CCc1ccccc1)NCC(O)c1ccc(O)c(C(N)=O)c1 (stereo not shown) [Labetalol, reference compound]														19.2 ± 0.56	99.1			
CC(C)NCC(O)COc1cccc2ccccc12 (stereo not shown) [Propranolol, reference compound]														39 ± 0.44	88.7			
